According to patent US20240350434A1, “METHODS FOR TREATING MAJOR DEPRESSIVE DISORDER AND TREATMENT-RESISTANT DEPRESSION” (iX Biopharma Limited, priority 2020, published 2024):
Values joined by “and” are separate entries in the source; they are usually repeats but may differ in a detail not shown here. Equal values may be shown once.

Experiments:
[1] = Clinical assessment of local tolerability and safety in the crossover study; format: in vivo, human
Description: To assess the local tolerability profile of the SL formulation, modified Likert scales (0-10) were recorded at 5, 10, 15, 30 and 45 min and 1 h post-dose administration at various time points for both the SL and i.v. formulation: • Mucosal irritation • Burning sensation • Bitterness • Nausea • Residual grittiness in the mouth
Safety assessments included scheduled adverse event probes, spontaneous adverse event (AE) reporting, physical examination, routine laboratory investigations, ECGs and vital sign evaluation.
Vital signs (including systolic and diastolic blood pres-sure, pulse, respiratory rate and body temperature) were performed predose and at hours 0.5, 1, 2, 4, 6, 8, 12 and 24 h post-dose. Pulse oximetry was recorded predose and continuously for the first 3 h post-dose administration

[2] = tested on: treatment-resistant major depressed patients; conditions: cited from earlier work
[3] = sublingually administered ketamine; cited from earlier work
[4] = Open label two way randomized crossover pharmacokinetic / absolute bioavailability study, SL ketamine wafer 25 mg vs 10 mg i.v. infusion; conditions: for clearance: CL, clearance following i.v. administration; for bioavailability: other: sublingual, F; for half-life: median (min-max in text) of eight healthy volunteers; for extrapolated portion of the AUC(0,∞): min-max
Description: The study was of open label two way randomized, crossover design in eight healthy male volunteers who all gave written informed consent. Each participant received either a single 10 mg i.v. dose as a constant rate 30 min infusion or a 25 mg SL dose of ketamine in two treatment periods with a 7 day washout. Both the SL and i.v. doses, and the duration of the i.v. infusion were chosen to ensure adequate characterization of the plasma concentration-time profiles and good quality estimates of pharmacokinetic (PK) variables for both routes of administration. […] The sequence of the two formulations was according to a computer-generated randomization code.
The SL wafer formulation was a freeze dried solid dispersion of racemic ketamine hydrochloride in a porous matrix using lactose as a filling agent. Prior to administration of the wafer the sublingual space was rinsed with 3 ml of water after which the wafer was placed sublingually by a member of the study staff. The participants were instructed to avoid chewing or swallowing of the wafer within 5 min of its placement. For i.v. administration, commercially available ketamine (Ketalar®) was diluted to 30 ml in saline and administered over 30 min using a volumetrically controlled syringe driver. The infusion line was primed prior to start of the infusion.
Pharmacokinetic blood sampling and clinical assessment of local tolerability and safety were carried out for 24 h following both dosing occasions.
Key inclusion criteria were healthy adult males aged 18-65 years with a BMI 19-30 kg m^−2 in good general health including mental health as assessed by the Symptom Checklist-90-R (SCL-90-R®), a screening instrument which evaluates a broad range of psychological problems and symptoms of psychopathology. Pharmacokinetic blood samples (5 ml), were taken following both i.v. and SL administration at predose 5, 10, 15, 30, 35 and 45 min, and at 1.0, 1.5, 2.0, 2.5, 3.0, 4.0, 6.0, 8.0,12 and 24 h post-dose.
Whole blood was drawn into prechilled lithium heparin tubes and remained on ice post-sample collection until centrifugation. Samples were centrifuged at 1800 g for 10 min in a refrigerated centrifuge at 4° C. Plasma was decanted and frozen at-80° C.
Safety laboratory testing (biochemistry, haematology and urinalysis) was performed predose and at hour 24 post-dose administration in each period. Quantification of the plasma concentrations of racemic ketamine was performed using a validated HPLC method with u.v. detection, a lower limit of quantification (LLOQ) of 2 ng ml^−1 and <20% bias and imprecision.
Standard non-compartmental methods using the PK Solver plug-in for Microsoft
Excel were used to derive pharmacokinetic variables, except for Cmax, Tmax and Tlast, which were taken as observations from the plasma concentration-time profile of each participant. Actual times were used when reporting Tmax. The terminal rate constant (λz) was estimated by log-linear regression, of the slope of the natural log plasma concentration vs. time curve where λz=−1×slope. The linear regression in the terminal phase used the last three to six data points. The terminal t1/2 was calculated as t1/2=ln(2)/λz.
The area under the plasma concentration time curve from time zero to the last quantifiable concentration (AUC(0,tlast)) was obtained using the linear trapezoidal method and extrapolated to infinity to obtain the total area, AUC(0,∞), with Clast/λz, where Clast is the last quantifiable plasma concentration.

[5] = cited from earlier work
[6] = tested on: mouse tests of antidepressant efficacy; conditions: up to a 30-fold range of doses, multiple mouse tests; cited from earlier work
NMDA receptors = conditions: cited from earlier work
[7] = both routes (10 mg i.v., 25 mg SL)
[8] = i.v. infusion, treatment-resistant major depressed patients
[9] = individual subjects, 10 mg as 30 min i.v. infusion
[10] = individual subjects, 25 mg sublingually as a wafer

With `CNC1(c2ccccc2Cl)CCCCC1=O` (racemic) [RS ketamine, ketamine] the “onset of adverse events” value ([1]; 10 mg i.v.) was 6 to 22 min, the “onset of adverse events” value ([1]; 25 mg SL dosing) was 5 to 18 min and the “adverse events terrible taste in mouth, blurred vision, decreased sensation in arm and dizziness, number of each” value ([1]; SL) was “one”. The “duration of adverse events” value [1, 7] was “less than 1 h”, the serious adverse events [1, 7] was “no serious adverse events” and the “severity of adverse events” value [1, 7] was “mild”. For the same compound, the “local and systemic tolerability” value ([1]; both routes of administration) was “very good”, the “adverse events thought to be related to treatment, number reported” value ([1]; both routes, eight volunteers) was “Nineteen” and the “adverse events body feels heavy, dry mouth and visual disturbance, number of each” value ([1]; i.v.) was “one”. The “treatment of non-melancholic or anxious depression patients as measured by MADRS” value ([2]; 6 repeated IV doses 0.5 mg/kg, Wang et al) was “effectively treated”, the “patients who maintained response for at least 7 days” value [2, 8] was 35% and the “time to manifestation of antidepressant effects post-infusion” value [2, 8] was ≤ 2 h. The “anti-depressive effects as measured by MADRS” value ([2]; single IV dose 0.5 mg/kg, Zarate et al) was “caused anti-depressive effects”, the “efficacy for the treatment of depression, comparison with esketamine” value ([2]; single dose IV 0.5 mg/kg, Bahji et al meta-analysis) was “more efficacious than intransal esketamine” and the “bioavailability values reported in the literature” value [3] was 24-32.2%. The “Cmax, peak plasma concentration (i.v.)” value ([4]; Gmean of eight healthy volunteers, 10 mg as 30 min i.v. infusion) was 128.1 ng/ml^−1, the “Cmax, peak plasma concentration (SL)” value ([4]; Gmean of eight healthy volunteers, 25 mg sublingually as a wafer) was 71.1 ng/ml^−1 and the “first quantifiable ketamine plasma concentrations observed at” value ([4]; all participants, both administration routes (i.v. and SL), first post-dose sample) was 5 min. It also gave an AUC(0-inf) ([4]; human, plasma, 25 mg, AUC(0,∞) (SL), individual subjects, 25 mg sublingually as a wafer) of 204 ng·h/mL, an AUC(0-inf) ([4]; human, plasma, iv, 10 mg, AUC(0,∞) (i.v.), individual subjects, 10 mg as 30 min i.v. infusion) of 270 ng·h/mL and a clearance ([4]; human, plasma, iv, 10 mg, individual subjects, 10 mg as 30 min i.v. infusion) of 997 mL/min. The bioavailability ([4]; human, plasma, 25 mg, individual subjects, 25 mg SL wafer vs 10 mg i.v., dose adjusted AUC(0,∞)) was 30%, the “AUC(0,∞) (i.v.)” value [4, 9] was 289.2 ng·h/mL and 299.4 ng·h/mL and 261.0 ng·h/mL and 167.2 ng·h/mL and 282.7 ng·h/mL and 243.2 ng·h/mL and 254.8 ng·h/mL and the “CL, clearance following i.v. administration” value [4, 9] was 37.0 L/h and 34.6 L/h and 33.4 L/h and 36.3 L/h and 35.4 L/h and 41.1 L/h and 39.3 L/h. For the same compound, the “Vz, apparent volume of distribution following i.v. administration” value [4, 9] was 253 L and 300 L and 164 L and 385 L and 375 L and 126 L and 158 L and 283 L, the “Cmax, peak plasma concentration (i.v.)” value ([4]; individual subjects, 10 mg as 30 min i.v. infusion, healthy volunteers) was 124.2 ng/ml^−1 and 120.4 ng/ml^−1 and 101.9 ng/ml^−1 and 83.2 ng/ml^−1 and 81.1 ng/ml^−1 and 226.7 ng/ml^−1 and 166.3 ng/ml^−1 and 160.3 ng/ml^−1 and the “F, bioavailability” value ([4]; individual subjects, 25 mg SL wafer vs 10 mg i.v., dose adjusted AUC(0,∞)) was 23% and 38% and 28% and 27%. For the same compound, the “AUC(0,∞) (SL)” value [4, 10] was 171.9 ng·h/mL and 211.3 ng·h/mL and 166.1 ng·h/mL and 151.6 ng·h/mL and 202.9 ng·h/mL and 162.5 ng·h/mL and 134.3 ng·h/mL, the “t1/2, terminal half-life (SL)” value [4, 10] was 5.5 h and 3.5 h and 2.3 h and 4.6 h and 5.1 h and 2.9 h and 1.8 h and 3.2 h and the “Cmax, peak plasma concentration (SL)” value ([4]; individual subjects, 25 mg sublingually as a wafer, healthy volunteers) was 60.2 ng/ml^−1 and 50.0 ng/ml^−1 and 75.1 ng/ml^−1 and 51.8 ng/ml^−1 and 61.2 ng/ml^−1 and 88.8 ng/ml^−1 and 128.3 ng/ml^−1 and 76.7 ng/ml^−1. It also gave an AUC(0-inf) ([4]; male, human, plasma, 25 mg, AUC(0,∞) (SL), Gmean of eight healthy volunteers, 25 mg sublingually as a wafer) of 185 ng·h/mL, a half-life ([4]; male, human, plasma, 25 mg, t1/2, terminal half-life (SL), 25 mg sublingually as a wafer) of 3.4 h and an AUC(0-inf) ([4]; male, human, plasma, iv, 10 mg, AUC(0,∞) (i.v.), Gmean of eight healthy volunteers, 10 mg as 30 min i.v. infusion) of 255 ng·h/mL. The clearance ([4]; male, human, plasma, iv, 10 mg, Gmean of eight healthy volunteers, 10 mg as 30 min i.v. infusion) was 653 mL/min, the Vd ([4]; male, human, plasma, iv, 10 mg, Vz, apparent volume of distribution following i.v. administration, Gmean of eight healthy volunteers, 10 mg as 30 min i.v. infusion) was 237 L and the half-life ([4]; male, human, plasma, iv, 10 mg, t1/2, terminal half-life (i.v.), 10 mg as 30 min i.v. infusion) was 4.5 h. The bioavailability ([4]; male, human, plasma, 25 mg, median (lower, upper 90% CI limit in text) of eight healthy volunteers, 25 mg SL wafer vs 10 mg i.v.) was 29%, the “extrapolated portion of the AUC(0,∞)” value ([4]; SL dosing) was 2-9% and the “extrapolated portion of the AUC(0,∞)” value ([4]; i.v. dosing) was 3-7%. The “duration of action as an anaesthetic” value ([5]; depending on dose) was “approximately 30 minutes” and the terminal half-life ([5]; racemic drug) was “approximately 3 hours”.
In the case of `CN[C@@]1(c2ccccc2Cl)CCCCC1=O` [(R)-ketamine], the “antidepressant efficacy compared with (S)-ketamine” value [6] is given as “superior to (S)-ketamine”.
For `CN[C@]1(c2ccccc2Cl)CCCCC1=O` [S enantiomer, (S)-ketamine], the “potency relative to R enantiomer (times more potent)” value (NMDA receptors; in humans in vivo) is listed as “approximately 3 times”.
For `NC1(c2ccccc2Cl)CCCCC1=O` (centres unmarked) [norketamine], the “potency as NMDA antagonists relative to parent molecules (times less)” value (NMDA receptors) is given as 5-8 times.
